Test results from patent US11420958B2, “Aryl and heteroaryl substituted indole compounds” (BRISTOL-MYERS SQUIBB COMPANY, priority 2017, dated 2022).
pIC50: −log10 of the molar value.

Columns and labels:
Assay type in all cases: cell-based
human TLR7 = human TLR7 (Homo sapiens (Human), UniProt Q9NYK1); test: TLR7 inhibition reporter assay (HEK-Blue, SEAP); conditions: HEK-Blue cells overexpressing human TLR7, gardiquimod 7.5 μM stimulation
How it was run: (§1)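 Percent inhibition of agonist-induced SEAP secretion was scored against DMSO-only and reference-inhibitor controls. Stimulation lasted 22 h at 37 °C following 30 min compound pre-exposure (0.05 nM–50 μM); ligands were gardiquimod 7.5 μM, R848 15.9 μM and ODN2006 5 nM for TLR7, 8 and 9.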

human TLR8 = human TLR8 (Homo sapiens (Human), UniProt Q9NR97); test: TLR8 inhibition reporter assay (HEK-Blue, SEAP); conditions: HEK-Blue cells overexpressing human TLR8, R848 15.9 μM stimulation
human TLR8, sequence (Q9NR97 27-1041): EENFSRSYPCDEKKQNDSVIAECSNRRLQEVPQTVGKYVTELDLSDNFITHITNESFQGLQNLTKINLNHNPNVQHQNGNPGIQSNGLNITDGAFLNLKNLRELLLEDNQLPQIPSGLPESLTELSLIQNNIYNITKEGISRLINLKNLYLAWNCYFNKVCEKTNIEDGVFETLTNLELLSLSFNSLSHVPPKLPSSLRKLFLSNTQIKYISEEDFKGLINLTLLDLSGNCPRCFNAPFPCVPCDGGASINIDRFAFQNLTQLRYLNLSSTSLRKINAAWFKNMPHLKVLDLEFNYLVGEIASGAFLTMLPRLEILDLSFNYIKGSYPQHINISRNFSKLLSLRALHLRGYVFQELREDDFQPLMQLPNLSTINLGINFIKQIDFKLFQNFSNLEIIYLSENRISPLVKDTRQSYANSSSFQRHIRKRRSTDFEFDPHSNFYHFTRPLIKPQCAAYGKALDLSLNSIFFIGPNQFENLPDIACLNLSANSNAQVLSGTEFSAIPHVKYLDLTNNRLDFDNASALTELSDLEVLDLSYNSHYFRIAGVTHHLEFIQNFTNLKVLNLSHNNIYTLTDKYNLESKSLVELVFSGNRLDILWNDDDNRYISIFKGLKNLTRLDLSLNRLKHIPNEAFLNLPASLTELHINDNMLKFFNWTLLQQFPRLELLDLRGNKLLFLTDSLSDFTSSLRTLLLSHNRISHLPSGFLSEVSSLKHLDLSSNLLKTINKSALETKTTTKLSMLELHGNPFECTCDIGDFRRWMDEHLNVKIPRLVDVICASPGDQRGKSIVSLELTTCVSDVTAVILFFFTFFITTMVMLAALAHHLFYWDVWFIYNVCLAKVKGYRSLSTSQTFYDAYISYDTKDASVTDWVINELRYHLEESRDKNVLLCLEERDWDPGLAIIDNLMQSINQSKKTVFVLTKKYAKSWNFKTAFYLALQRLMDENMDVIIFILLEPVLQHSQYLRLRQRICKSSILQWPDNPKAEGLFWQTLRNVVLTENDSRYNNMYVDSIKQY
How it was run: as §1

human TLR9 = human TLR9 (Homo sapiens (Human), UniProt Q9NR96); test: TLR9 inhibition reporter assay (HEK-Blue, SEAP); conditions: HEK-Blue cells overexpressing human TLR9, ODN2006 5 nM stimulation
human TLR9, sequence (Q9NR96 26-1032): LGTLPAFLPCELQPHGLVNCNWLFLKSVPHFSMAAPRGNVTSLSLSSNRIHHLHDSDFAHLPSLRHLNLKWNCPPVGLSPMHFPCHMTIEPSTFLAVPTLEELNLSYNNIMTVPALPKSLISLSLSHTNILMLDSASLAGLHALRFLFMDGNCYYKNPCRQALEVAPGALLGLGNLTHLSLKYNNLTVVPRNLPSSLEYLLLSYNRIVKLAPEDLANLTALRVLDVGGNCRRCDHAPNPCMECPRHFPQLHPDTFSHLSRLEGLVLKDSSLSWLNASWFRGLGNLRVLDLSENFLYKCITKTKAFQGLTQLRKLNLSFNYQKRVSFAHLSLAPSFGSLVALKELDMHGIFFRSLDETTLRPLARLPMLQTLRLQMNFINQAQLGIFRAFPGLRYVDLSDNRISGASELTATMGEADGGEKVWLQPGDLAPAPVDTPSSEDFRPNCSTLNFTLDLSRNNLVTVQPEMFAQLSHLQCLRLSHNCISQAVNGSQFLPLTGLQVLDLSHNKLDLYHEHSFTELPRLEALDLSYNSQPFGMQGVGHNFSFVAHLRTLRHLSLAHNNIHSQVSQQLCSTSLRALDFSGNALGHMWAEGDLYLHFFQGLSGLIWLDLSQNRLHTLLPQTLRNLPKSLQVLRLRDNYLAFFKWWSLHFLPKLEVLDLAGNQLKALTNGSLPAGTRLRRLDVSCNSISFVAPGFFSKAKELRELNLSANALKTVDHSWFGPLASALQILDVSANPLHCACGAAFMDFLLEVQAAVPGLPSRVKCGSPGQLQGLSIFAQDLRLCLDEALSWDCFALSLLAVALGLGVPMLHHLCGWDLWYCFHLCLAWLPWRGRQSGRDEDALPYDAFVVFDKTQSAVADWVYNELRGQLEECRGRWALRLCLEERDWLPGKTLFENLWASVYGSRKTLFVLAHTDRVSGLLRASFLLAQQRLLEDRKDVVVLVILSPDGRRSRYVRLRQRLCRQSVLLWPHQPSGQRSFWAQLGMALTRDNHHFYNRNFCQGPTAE
How it was run: as §1

human TLR7, sequence (Q9NYK1 27-1049): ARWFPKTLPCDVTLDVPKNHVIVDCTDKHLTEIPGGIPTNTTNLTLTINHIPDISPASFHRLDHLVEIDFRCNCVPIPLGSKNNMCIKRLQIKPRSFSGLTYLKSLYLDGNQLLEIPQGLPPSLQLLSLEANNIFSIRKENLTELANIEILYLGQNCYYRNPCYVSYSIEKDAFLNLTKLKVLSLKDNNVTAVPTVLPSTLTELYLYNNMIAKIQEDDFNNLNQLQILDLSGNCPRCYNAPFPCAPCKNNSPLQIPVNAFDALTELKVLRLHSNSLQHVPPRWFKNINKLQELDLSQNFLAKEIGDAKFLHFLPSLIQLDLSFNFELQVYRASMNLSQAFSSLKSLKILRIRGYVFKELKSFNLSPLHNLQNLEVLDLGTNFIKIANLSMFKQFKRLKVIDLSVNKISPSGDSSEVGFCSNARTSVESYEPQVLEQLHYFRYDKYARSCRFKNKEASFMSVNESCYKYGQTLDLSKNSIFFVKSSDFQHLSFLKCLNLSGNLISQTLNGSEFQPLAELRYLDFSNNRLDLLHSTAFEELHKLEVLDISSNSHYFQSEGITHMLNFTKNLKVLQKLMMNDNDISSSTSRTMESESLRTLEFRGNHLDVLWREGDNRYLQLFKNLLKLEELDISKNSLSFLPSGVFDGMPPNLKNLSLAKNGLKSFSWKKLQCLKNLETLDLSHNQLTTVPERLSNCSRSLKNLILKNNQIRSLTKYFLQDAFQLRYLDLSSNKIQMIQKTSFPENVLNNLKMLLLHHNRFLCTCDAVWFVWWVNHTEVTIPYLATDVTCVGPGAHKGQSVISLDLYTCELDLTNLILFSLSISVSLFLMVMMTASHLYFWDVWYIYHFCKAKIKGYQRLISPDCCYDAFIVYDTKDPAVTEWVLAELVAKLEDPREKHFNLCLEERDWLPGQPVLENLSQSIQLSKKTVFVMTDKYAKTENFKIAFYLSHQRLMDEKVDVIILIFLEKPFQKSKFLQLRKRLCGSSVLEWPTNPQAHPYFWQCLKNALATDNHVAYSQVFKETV

Compound | pIC50 (human TLR7) | pIC50 (human TLR8) | pIC50 (human TLR9)
CC(C)c1c(-c2ccnc3[nH]ncc23)[nH]c2ccc(-c3nnc(CNC45CC6CC(CC(C6)C4)C5)o3)cc12 [Example 151, N-((5-(3-isopropyl-2-(1H-pyrazolo[3,4-b]pyridin-4-yl)-1H-indol-5-yl)-1,3,4-oxadiazol-2-yl)methyl)adamantan-1-amine] | 5.27 | 7.74 | < 4.30
Cc1cc(-c2[nH]c3ccc(-c4nnc(C(=O)NC5CCN(C(C)C)CC5)o4)cc3c2C(C)C)ccn1 [Example 58, 5-(3-isopropyl-2-(2-methylpyridin-4-yl)-1H-indol-5-yl)-N-(1-isopropylpiperidin-4-yl)-1,3,4-oxadiazole-2-carboxamide] | 7.30 | 8.42 | 6.52
COc1ccc(-c2[nH]c3ccc(-c4ccnc(C(=O)N5CCNCC5)c4)cc3c2C(C)C)cc1OC [Example 14, (4-(2-(3,4-dimethoxyphenyl)-3-isopropyl-1H-indol-5-yl)pyridin-2-yl)(piperazin-1-yl)methanone] | 5.97 | 5.98 | < 4.30
COc1ccc(-c2[nH]c3ccc(-c4nnc(C5CCN(C(=O)CN(C)C)CC5)o4)cc3c2C(C)C)cc1OC [Example 3, 1-(4-{5-[2-(3,4-dimethoxyphenyl)-3-(propan-2-yl)-1H-indol-5-yl]-1,3,4-oxadiazol-2-yl}piperidin-1-yl)-2-(dimethylamino)ethan-1-one] | 7.55 | 7.89 | 5.91
COc1ccc(-c2[nH]c3ccc(-c4nnc(Cc5c[nH]cn5)o4)cc3c2C(C)C)cc1OC [Example 45, 2-((1H-imidazol-4-yl)methyl)-5-(2-(3,4-dimethoxyphenyl)-3-isopropyl-1H-indol-5-yl)-1,3,4-oxadiazole] | 6.81 | 7.80 | < 4.30

Results, then the molecule that gave them:

pIC50 (human TLR7) | pIC50 (human TLR8) | pIC50 (human TLR9) | Compound
7.03 | 7.77 | 4.32 | CNC(=O)CN1CCc2cc(-c3ccc4[nH]c(-c5ccnc(C)c5)c(C(C)C)c4c3)sc2C1 [Example 315, 2-(2-(3-isopropyl-2-(2-methylpyridin-4-yl)-1H-indol-5-yl)-4,7-dihydrothieno[2,3-c]pyridin-6(5H)-yl)-N-methylacetamide]
7.31 | 8.64 | 5.67 | Cc1cc(-c2[nH]c3ccc(-c4nc(C(=O)N5CC6CNCC6C5)co4)cc3c2C(C)C)ccn1 (stereo not drawn) [Example 172, (hexahydropyrrolo[3,4-c]pyrrol-2(1H)-yl)(2-(3-isopropyl-2-(2-methylpyridin-4-yl)-1H-indol-5-yl)oxazol-4-yl)methanone]
7.37 | 7.96 | 6.97 | Cc1cc(-c2[nH]c3ccc(-c4nnc(C5CCCN(C(C)C)C5)o4)cc3c2CC(F)F)cc(C)n1 (stereo not drawn) [Example 314, 2-(3-(2,2-difluoroethyl)-2-(2,6-dimethylpyridin-4-yl)-1H-indol-5-yl)-5-(1-isopropylpiperidin-3-yl)-1,3,4-oxadiazole]
7.25 | 8.11 | 6.03 | CC(C)c1c(-c2ccnc3[nH]ncc23)[nH]c2ccc(-c3nnc(C(=O)NC4CCN(C(C)C)CC4)s3)cc12 [Example 203, 5-(3-isopropyl-2-(1H-pyrazolo[3,4-b]pyridin-4-yl)-1H-indol-5-yl)-N-(1-isopropylpiperidin-4-yl)-1,3,4-thiadiazole-2-carboxamide]
